# From paper PMC2074379 (British Journal of Cancer, 1996)
# Tested on: serine carboxypeptidase
# Experiment: Effect of PMSF on the in vitro metabolism of antagonist D in 2% mouse liver homogenate
# Type: biochemical
# Settings: antagonist D 100 µg in 1.0 ml 2% w/v mouse liver homogenate in PBS, 37°C; PMSF 0-2.5 mM preincubated 15 min at 23°C; HPLC; mean of two to four experiments
# Source text: British Journal of Cancer (1996) 73, 715-720 ? 1996 Stockton Press All rights reserved 0007-0920/96 $12.00 % Metabolism of the broad-spectrum neuropeptide growth factor antagonist: ID-Arg1, D-Phe5, D-Trp7'9, Leull"-substance P DA Jones', J Cummings', SP Langdon', AJ Maclellan', T Higgins2, E Rozengurt2 and JF Smyth' 'Imperial Cancer Research Fund, Medical Oncology Unit, Western General Hospital, Edinburgh EH4 2XU; 2Imperial Cancer Research Fund, PO Box 123, Lincoln's Inn Fields, London WC2A 3PX, UK. Summary Broad-spectrum neuropeptide growth factor antagonists, such as [D-Arg', D-Phe5, D-Trp7'9, Leu']substance P (antagonist D) and [Arg6, D-Trp7'9, NmePhe8]substance p(6- 11) (antagonist G), are currently being investigated as possible anti-tumour agents. These compounds are hoped to be effective against neuropeptide-driven cancers such as small-cell lung cancer. […] The in vitro metabolism of antagonist D has been characterised and the structures of two major metabolites have been elucidated by amino acid analysis and mass spectrometry. […] HPLC The HPLC system used consisted of two 510 HPLC pumps, a 712 WISP autosampler, a TCM column heater (all Waters, Northwich, UK) and a model 1046A fluorescence detector (Hewlett Packard, Walborn, Germany). […]
smiles,measurement,value
"O=S(=O)(F)Cc1ccccc1 [PMSF, phenylmethylsulfonylfluoride]",PMSF concentration sufficient to cause almost complete arrest of the metabolism of antagonist D,1.0 mM
